Where two headings read alike, the source gives them in different places.
Test system: Human Jurkat T-cells (clone N)
Assay: Jurkat T-cell activation (anti-TCR, CD69 upregulation)
Format: cell-based
Procedure, shortened: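 Jurkat cells in RPMI + 5% FBS preincubated with compound 1 h at 37 °C, then stimulated with anti-TCR C305 at 500 ng/ml for 20 h. CD69 surface expression stained with anti-CD69-APC and read by flow cytometry; IC50 versus solvent-only control.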

Row | IC50 (Homo sapiens, Jurkat) [µM] | IC50 [µM] | SMILES
1 | > 10 | – | COC(=O)c1ccc(Nc2ncc(F)c(Nc3ccc(C(=O)OC)c(O)c3)n2)cc1O [Compound R945056]
2 | > 10 | – | CCOC(=O)c1cccc(Nc2ncc(F)c(Nc3ccc4c(c3)OCCO4)n2)c1 [Compound R925745]
3 | – | 7.75 | CNC(=O)COc1cccc(Nc2ncc(F)c(Nc3cc(C(=O)OC)cc(C(F)(F)F)c3)n2)c1 [Compound R926862]
4 | – | 17.7 | CCOC(=O)COc1ccc(Nc2ncc(F)c(Nc3cccc(O)c3)n2)cc1 [Compound R926395]
5 | – | 0.664 | CC(O)CNC(=O)COc1cccc(Nc2ncc(F)c(Nc3ccc4c(c3)NCCO4)n2)c1 (stereo not drawn) [Compound R909251]
6 | – | > 10 | O=C(NCCO)c1cc2cc(Nc3ncc(F)c(Nc4ccc5oc(C(=O)NCCO)cc5c4)n3)ccc2o1 [Compound R950167]
7 | – | 16.2 | CNC(=O)COc1cccc(Nc2ncc(F)c(Nc3ccc(OC)c(C(=O)NC(C)C)c3)n2)c1 [Compound R940312]
8 | 17.7 | – | Oc1cccc(Nc2ncc(F)c(Nc3ccc(Cl)nc3)n2)c1 [Compound R927018]
9 | – | 5.01 | CCOC(=O)CNc1cccc(Nc2ncc(F)c(Nc3cccc(O)c3)n2)c1 [Compound R950215]
10 | – | 12.4 | CN(C)C(=O)c1cc2cc(Nc3ncc(F)c(Nc4cccc(O)c4)n3)ccc2o1 [Compound R926718]
11 | – | 4.71 | COC(=O)COc1cccc(Nc2ncc(F)c(Nc3ccc4c(c3)C(OC)CCO4)n2)c1 (stereo not drawn) [Compound R950295]
12 | – | 1.91 | CN(C)C(=O)COc1cccc(Nc2ncc(F)c(Nc3ccc4c(c3)OCCO4)n2)c1 [Compound R925755]
13 | – | > 10 | O=C(O)COc1cccc(Nc2ncc(F)c(Nc3ccc(O)c(C(=O)O)c3)n2)c1 [Compound R950291]
14 | – | 3.61 | CNC(=O)COc1cccc(Nc2ncc(F)c(Nc3cccc(C(C)=NO)c3)n2)c1 [Compound R950373]
15 | – | 2.7 | CNC(=O)COc1cccc(Nc2ncc(F)c(Nc3ccc(O)cc3)n2)c1 [Compound R950347]
16 | – | 2.79 | Oc1cccc(Nc2nc(Nc3ccc4oc(CN5CCNCC5)cc4c3)ncc2F)c1 [Compound R926769]
17 | – | > 10 | CNC(=O)COc1cccc(Nc2ncc(F)c(Nc3cccc(-c4nn[nH]n4)c3)n2)c1 [Compound R926855]

Row | IC50 (Homo sapiens, Jurkat) [µM] | IC50 [µM] | SMILES
18 | 2.73 | – | CNC(=O)c1cc2cc(Nc3nc(Nc4ccc5c(c4)OCCO5)ncc3F)ccc2o1 [Compound R926491]
19 | > 10 | – | COC(=O)c1cc2cc(Nc3ncc(F)c(Nc4cccc(C(C)C)c4)n3)ccc2o1 [Compound R940283]
20 | – | > 10 | CNC(=O)COc1cccc(Nc2ncc(F)c(Nc3cccc(CN)c3)n2)c1 [Compound R940309]
21 | – | 3.68 | Cc1ccc(Nc2ncc(F)c(Nc3ccc(C)c(O)c3)n2)cc1O [Compound R926341]
22 | – | 3.46 | OCCn1ncc2cc(Nc3nc(Nc4cccc(O)c4)ncc3F)ccc21 [Compound R935259]
23 | > 10 | – | COC(=O)c1cccc(Nc2ncc(F)c(Nc3cccc(C(=O)OC)c3)n2)c1 [Compound R945035]
24 | > 10 | – | Cc1cc(Nc2ncc(F)c(Nc3cccc(C(C)(C)C)c3)n2)cc(Cl)c1O [Compound R940271]
25 | – | 4.12 | CNC(=O)COc1ccc(Nc2ncc(F)c(Nc3cccc(O)c3)n2)cc1 [Compound R945170]
26 | – | 13.3 | CNC(=O)COc1cccc(Nc2ncc(F)c(Nc3ccc4c(c3)C(=O)CCC4)n2)c1 [Compound R926947]
27 | – | 9.74 | COC(=O)COc1cccc(Nc2ncc(F)c(Nc3cc(C)c(OC)c(C)c3)n2)c1 [Compound R945153]
28 | – | 0.824 | Cn1cc2cc(Nc3ncc(F)c(Nc4cccc(O)c4)n3)ccc2n1 [Compound R935299]
29 | 1.03 | – | O=C1COc2cc(Nc3ncc(F)c(Nc4cccc(O)c4)n3)ccc2N1 [Compound R908699]
30 | 13.4 | – | COC(=O)c1cc2cc(Nc3ncc(F)c(Nc4ccc5c(c4)OCCO5)n3)ccc2o1 [Compound R926690]
31 | – | 3.09 | CNC(=O)COc1cccc(Nc2ncc(F)c(Nc3ccc(C#N)c(C)c3)n2)c1 [Compound R926851]
32 | – | 3.37 | CN(CCO)C(=O)c1cc2cc(Nc3ncc(F)c(Nc4cccc(O)c4)n3)ccc2o1 [Compound R926725]
33 | – | 1.83 | CNC(=O)CCn1ncc2cc(Nc3ncc(F)c(Nc4cccc(O)c4)n3)ccc21 [Compound R935305]
34 | – | > 10 | CCOC(=O)COc1cccc(Nc2ncc(F)c(Nc3ccc(O)c(C(=O)OC)c3)n2)c1 [Compound R950293]

Second part, the compound before the results:

Row | SMILES | IC50 (Homo sapiens, Jurkat) [µM] | IC50 [µM]
35 | CN(C)CCOc1cccc(Nc2ncc(F)c(Nc3ccc4c(c3)OCCO4)n2)c1 [Compound R926771] | 3.47 | –
36 | CCNC(=O)Nc1ccc(Nc2ncc(F)c(Nc3ccc(NC(=O)NCC)cc3)n2)cc1 [Compound R945040] | > 10 | –
37 | COc1cc(-c2ccccc2)c(C)cc1Nc1ccnc(Nc2cc(C)c(-c3ccccc3)cc2OC)n1 [Compound R925808] | > 10 | –
38 | CCOC(=O)CNc1cccc(Nc2ncc(F)c(Nc3cccc(NCCO)c3)n2)c1 [Compound R950229] | – | 3.77
39 | Cc1cc(Nc2nc(Nc3cccc(OCC(=O)N4CCOCC4)c3)ncc2F)cc(C)c1O [Compound R940254] | – | 3.76
40 | COc1ccc(Nc2nc(NC3CCN(Cc4ccccc4)CC3)ncc2F)cc1OC [Compound R940263] | – | 10.1
41 | Nc1cc(Nc2ccnc(Nc3ccc(Nc4ccccc4)c(N)c3)n2)ccc1Nc1ccccc1 [Compound R950123] | > 10 | –
42 | CCNC(=O)Oc1cccc(Nc2nc(Nc3cccc(OCC(=O)NC)c3)ncc2F)c1 [Compound R926919] | – | > 10
43 | Oc1cccc(Nc2ncc(-c3ccccc3)c(Nc3cccc(O)c3)n2)c1 [Compound R925783] | > 10 | –
44 | COC(=O)COc1ccc(Nc2ncc(F)c(Nc3ccc4c(c3)OCCCO4)n2)cc1 [Compound R935182] | – | 23.9
45 | O=C(CNc1cccc(Nc2ncc(F)c(Nc3ccc4c(c3)OCCO4)n2)c1)N(CCO)CCO [Compound R950199] | – | 3.21
46 | CNC(=O)COc1cc(Nc2ncc(F)c(Nc3ccc4c(c3)OCCO4)n2)ccc1OC [Compound R926828] | – | 1.01
47 | Oc1cccc(Nc2ncc(F)c(Nc3ccc(OCCN4CCOCC4)cc3)n2)c1 [Compound R926710] | – | 4.27
48 | CNC(=O)COc1cccc(Nc2ncc(F)c(Nc3ccc4c(c3)OC(F)(F)C(F)(F)O4)n2)c1 [Compound R926732] | – | 5.26
49 | O=S(=O)(c1ccc(Nc2ncc(F)c(Nc3ccc4c(c3)OCCO4)n2)cc1)N1CCCC1 [Compound R926716] | 3.62 | –
50 | Oc1cccc(Nc2nc(NCc3ccc4c(c3)CCO4)ncc2F)c1 [Compound R950213] | > 10 | –
51 | CCOC(=O)COc1ccc(Nc2nc(Nc3ccc(OCC(=O)OCC)cc3)c(NC(=O)NC(=O)CCl)c(C(=O)OCC)n2)cc1 [Compound R926589] | – | > 10
52 | Fc1cnc(Nc2ccc3cn[nH]c3c2)nc1Nc1ccc2c(c1)OCCO2 [Compound R935190] | – | 3.47
53 | COc1ccc(Nc2ncc(C)c(Nc3ccc(OC)c(-c4ccccc4)c3)n2)cc1-c1ccccc1 [Compound R935002] | – | > 10
54 | Oc1cccc(Nc2ccnc(Nc3ccc(OCc4nn[nH]n4)cc3)n2)c1 [Compound R920819] | – | > 10
55 | Fc1ccc(Nc2ncc(F)c(Nc3ccc4c(c3)OCCO4)n2)cc1Cl [Compound R926218] | > 10 | –
56 | Nc1cccc(Nc2nc(Nc3cccc(NCCOCc4ccccc4)c3)ncc2F)c1 [Compound R950176] | – | > 10

Row | SMILES | IC50 (Homo sapiens, Jurkat) [µM] | IC50 [µM]
57 | O=C(COc1cccc(Nc2ncc(F)c(Nc3ccc4c(c3)OCCO4)n2)c1)NC(CO)CO [Compound R926784] | – | 2.38
58 | Cc1cc(Nc2nc(Nc3cccc(OCCN4CCNCC4)c3)ncc2F)cc(Cl)c1O [Compound R945150] | – | 1.11
59 | CC(C)Oc1ccc(Nc2nc(Nc3ccc(OCc4nc(-c5ccccc5)no4)cc3)ncc2F)cc1 [Compound R935135] | – | > 10
60 | Nc1nc(N(c2ccc(CO)cc2)c2ccc3c(c2)OCCO3)ncc1F [Compound R925760] | 20.2 | –
61 | Fc1cc(Nc2ncc(F)c(Nc3ccc4c(c3)OCCO4)n2)cc(C(F)(F)F)c1 [Compound R926894] | > 10 | –
62 | Fc1cccc(Nc2ncc(F)c(Nc3ccc4c(c3)OCCO4)n2)c1 [Compound R926221] | > 10 | –
63 | CCOC(=O)COc1ccc(Nc2ncc(F)c(Nc3ccc4c(c3)OCCO4)n2)cn1 [Compound R926740] | – | > 10
64 | C=CCNc1ncc(Br)c(Nc2cccc(O)c2)n1 [Compound R925822] | > 10 | –
65 | Fc1cnc(Nc2ccc(OCc3ccccc3)c(C(F)(F)F)c2)nc1Nc1ccc(OCc2ccccc2)c(C(F)(F)F)c1 [Compound R950090] | > 10 | –
66 | O=C(COc1cccc(Nc2ncc(F)c(Nc3cc(Cl)c(O)c(Cl)c3)n2)c1)N1CCOCC1 [Compound R950187] | – | 22.3
67 | CCOC(=O)COc1cccc(Nc2ncc(F)c(Nc3cc(Cl)c(O)c(Cl)c3)n2)c1 [Compound R950185] | – | > 10
68 | O=[N+]([O-])c1ccc(NCCO)c(Nc2ncc(F)c(Nc3cc([N+](=O)[O-])ccc3NCCO)n2)c1 [Compound R950150] | – | > 10
69 | C=CCNC(=O)Oc1cccc(Nc2nc(Nc3cccc(OCC(=O)NC)c3)ncc2F)c1 [Compound R926917] | – | 4.74
70 | O=C(O)c1cc(Nc2ncc(F)c(Nc3ccc(O)c(C(=O)O)c3)n2)ccc1O [Compound R945041] | > 10 | –
71 | Cc1cc(CNc2nc(Nc3cccc(O)c3)ncc2F)c(C)o1 [Compound R945151] | > 10 | –
72 | CNC(=O)COc1ccc(Nc2ncc(F)c(Nc3ccc4c(c3)OCCO4)n2)cc1 [Compound R909240] | – | 2.85
73 | Fc1cc(F)cc(Nc2ncc(F)c(Nc3ccc4c(c3)OCCO4)n2)c1 [Compound R926898] | > 10 | –
74 | COc1cc(Nc2nc(Nc3cccc(O)c3)ncc2F)c(OC)cc1Cl [Compound R926860] | – | > 10
75 | Nc1cc(Nc2ncc(F)c(Nc3ccc(F)c(N)c3)n2)ccc1F [Compound R950159] | 8.45 | –
76 | COCCOc1cccc(Nc2ncc(F)c(Nc3cccc(OCCOC)c3)n2)c1 [Compound R935076] | > 10 | –
77 | COc1ccc(Nc2ncc(F)c(Nc3ccc(OC)c(C(=O)O)c3)n2)cc1C(=O)O [Compound R945067] | > 10 | –
78 | Clc1cccc(-c2cnc(Nc3ccc4c(c3)OCCO4)nc2Nc2ccc3c(c2)OCCO3)c1 [Compound R925787] | > 10 | –
